# Results from patent US20150105252A1, “SUBSTITUTED PYRAZOLES AS HERBICIDES” (E I DU PONT DE NEMOURS AND COMPANY, priority 2013, published 2015).
# Experiments:
# [1] = tested on: corn; assay: Test A preemergence; format: in vivo, Zea mays; details: preemergence; for Corn plant response rating (0 to 100 scale): visual injury approx. 10 days after treatment
# How it was run: (§1)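 After sowing in a sand–loam mix, pots received compound preemergence by directed soil spray, or postemergence once plants reached the one- to two-leaf stage (2–10 cm). Formulation contained surfactant in a non-phytotoxic solvent. Injury was scored visually after ~10 greenhouse days, 0–100 scale.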
# [2] = tested on: velvetleaf; assay: Test A preemergence; format: in vivo, Abutilon theophrasti; details: preemergence; for Velvetleaf plant response rating (0 to 100 scale): visual injury approx. 10 days after treatment
# How it was run: as §1
# [3] = tested on: velvetleaf; assay: Test A postemergence; format: in vivo, Abutilon theophrasti
# How it was run: as §1
# [4] = tested on: crabgrass, large; assay: Test A preemergence; format: in vivo, Digitaria sanguinalis; details: preemergence; for Crabgrass, Large plant response rating (0 to 100 scale): visual injury approx. 10 days after treatment
# How it was run: as §1
# [5] = tested on: barnyardgrass; assay: Test B flood; format: in vivo, Echinochloa crus-galli; details: 250 g ai/ha, visual rating on 0 to 100 scale (0 no effect, 100 complete control), 13 to 15 days
# How it was run: (§2)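 Plants were grown to the 2-leaf stage and pots flooded to 3 cm above soil. Compounds were applied directly into the paddy water, with depth kept for the test. After 13–15 days in greenhouse, response was rated visually against controls on a 0 (no effect) to 100 (complete control) scale.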
# [6] = tested on: morningglory; assay: Test A preemergence; format: in vivo, Ipomoea spp.; details: preemergence; for Morningglory plant response rating (0 to 100 scale): visual injury approx. 10 days after treatment
# How it was run: as §1
# [7] = tested on: wheat; assay: Test A postemergence; format: in vivo, Triticum aestivum
# How it was run: as §1
# [8] = tested on: crabgrass, large; assay: Test A postemergence; format: in vivo, Digitaria sanguinalis
# How it was run: as §1
# [9] = tested on: wheat; assay: Test A preemergence; format: in vivo, Triticum aestivum; details: preemergence; for Wheat plant response rating (0 to 100 scale): visual injury approx. 10 days after treatment
# How it was run: as §1
# [10] = tested on: barnyardgrass; assay: Test A postemergence; format: in vivo, Echinochloa crus-galli
# How it was run: as §1
# [11] = tested on: foxtail, giant; assay: Test A postemergence; format: in vivo, Setaria faberii
# How it was run: as §1
# [12] = tested on: pigweed; assay: Test A postemergence; format: in vivo, Amaranthus retroflexus
# How it was run: as §1
# [13] = tested on: morningglory; assay: Test A postemergence; format: in vivo, Ipomoea spp.
# How it was run: as §1
# [14] = tested on: ducksalad; assay: Test B flood; format: in vivo, Heteranthera limosa; details: 250 g ai/ha, visual rating on 0 to 100 scale (0 no effect, 100 complete control), 13 to 15 days
# How it was run: as §2
# [15] = tested on: rice; assay: Test B flood; format: in vivo, Oryza sativa; details: 250 g ai/ha, visual rating on 0 to 100 scale (0 no effect, 100 complete control), 13 to 15 days
# How it was run: as §2
# [16] = tested on: foxtail, giant; assay: Test A preemergence; format: in vivo, Setaria faberii; details: preemergence; for Foxtail, Giant plant response rating (0 to 100 scale): visual injury approx. 10 days after treatment
# How it was run: as §1
# [17] = tested on: corn; assay: Test A postemergence; format: in vivo, Zea mays
# How it was run: as §1
# [18] = tested on: barnyardgrass; assay: Test A preemergence; format: in vivo, Echinochloa crus-galli; details: preemergence; for Barnyardgrass plant response rating (0 to 100 scale, 0 is no effect, 100 is complete control): visual injury approx. 10 days after treatment
# How it was run: as §1
# [19] = tested on: pigweed; assay: Test A preemergence; format: in vivo, Amaranthus retroflexus; details: preemergence; for Pigweed plant response rating (0 to 100 scale): visual injury approx. 10 days after treatment
# How it was run: as §1
# [20] = tested on: sedge, umbrella; assay: Test B flood; format: in vivo, Cyperus difformis; details: 250 g ai/ha, visual rating on 0 to 100 scale (0 no effect, 100 complete control), 13 to 15 days
# How it was run: as §2
# [21] = 125 g ai/ha, visual injury, 0 to 100 scale, approx. 10 days
# [22] = 500 g ai/ha, visual injury after approx. 10 days, 0 to 100 scale (0 no effect, 100 complete control)
# [23] = Postemergence, 500 g ai/ha, visual rating after approx. 10 days, 0 to 100 scale (0 no effect, 100 complete control)
# [24] = postemergence, 125 g ai/ha, about 10 days, visual rating on 0 to 100 scale (0 no effect, 100 complete control)
# [25] = Postemergence, 125 g ai/ha, 0 to 100 scale, 0 no effect, 100 complete control
# [26] = Postemergence, 500 g ai/ha, 0 to 100 scale (0 no effect, 100 complete control)
compound,measurement,setting,value
CCCc1cc(C(=O)Nc2ccc(F)cc2)nn1Oc1ccnc(C(F)(F)F)c1 [Compound 94],Corn plant response rating,[1]; [21],0
same,Corn plant response rating,[1]; [22],0
same,Velvetleaf plant response rating,[2]; [21],0
same,Velvetleaf plant response rating,[2]; [22],0
same,Velvetleaf plant response rating,[3]; [23],0
same,Velvetleaf plant response rating,[3]; [24],0
same,"Crabgrass, Large plant response rating",[4]; [21],0
same,"Crabgrass, Large plant response rating",[4]; [22],0
same,"Plant response rating, Barnyardgrass",[5],0
same,Morningglory plant response rating,[6]; [21],0
same,Morningglory plant response rating,[6]; [22],0
same,Wheat plant response rating,[7]; [23],0
same,Wheat plant response rating,[7]; [24],0
same,"Crabgrass, Large plant response rating",[8]; [23],0
same,"Crabgrass, Large plant response rating",[8]; [24],0
same,Wheat plant response rating,[9]; [21],0
same,Wheat plant response rating,[9]; [22],0
same,Barnyardgrass plant response rating,[10]; [25],0
same,Barnyardgrass plant response rating,[10]; [23],0
same,"Foxtail, Giant plant response rating",[11]; [23],0
same,"Foxtail, Giant plant response rating",[11]; [24],0
same,Pigweed plant response rating,[12]; [23],0
same,Pigweed plant response rating,[12]; [24],0
same,Morningglory plant response rating,[13]; [23],0
same,Morningglory plant response rating,[13]; [24],0
same,"Plant response rating, Ducksalad",[14],0
same,"Plant response rating, Rice",[15],0
same,"Foxtail, Giant plant response rating",[16]; [21],0
same,"Foxtail, Giant plant response rating",[16]; [22],0
same,Corn plant response rating,[17]; [23],0
same,Corn plant response rating,[17]; [24],0
same,Barnyardgrass plant response rating,[18]; [21],0
same,Barnyardgrass plant response rating,[18]; [22],0
same,Pigweed plant response rating,[19]; [21],0
same,Pigweed plant response rating,[19]; [22],0
same,"Plant response rating, Sedge, Umbrella",[20],0
CCc1cc(C(=O)NCC(F)(F)C(F)(F)F)nn1Cc1ccnc(C(F)(F)F)c1 [Compound 102],Corn plant response rating,[1]; [21],10
same,Corn plant response rating,[1]; [22],60
same,Velvetleaf plant response rating,[2]; [21],0
same,Velvetleaf plant response rating,[2]; [22],100
same,Velvetleaf plant response rating,[3]; [23],50
same,Velvetleaf plant response rating,[3]; [24],10
same,"Crabgrass, Large plant response rating",[4]; [21],60
same,"Crabgrass, Large plant response rating",[4]; [22],100
same,"Plant response rating, Barnyardgrass",[5],0
same,Morningglory plant response rating,[6]; [21],10
same,Morningglory plant response rating,[6]; [22],50
same,Wheat plant response rating,[7]; [23],30
same,Wheat plant response rating,[7]; [24],0
same,"Crabgrass, Large plant response rating",[8]; [23],80
same,"Crabgrass, Large plant response rating",[8]; [24],50
same,Wheat plant response rating,[9]; [21],0
same,Wheat plant response rating,[9]; [22],40
same,Barnyardgrass plant response rating,[10]; [23],60
same,Barnyardgrass plant response rating,[10]; [24],20
same,"Foxtail, Giant plant response rating",[11]; [23],90
same,"Foxtail, Giant plant response rating",[11]; [24],50
same,Pigweed plant response rating,[12]; [23],80
same,Pigweed plant response rating,[12]; [24],50
same,Morningglory plant response rating,[13]; [23],60
same,Morningglory plant response rating,[13]; [24],40
same,"Plant response rating, Ducksalad",[14],50
same,"Plant response rating, Rice",[15],0
same,"Foxtail, Giant plant response rating",[16]; [21],90
same,"Foxtail, Giant plant response rating",[16]; [22],100
same,Corn plant response rating,[17]; [23],50
same,Corn plant response rating,[17]; [24],30
same,Barnyardgrass plant response rating,[18]; [21],20
same,Barnyardgrass plant response rating,[18]; [22],90
same,Pigweed plant response rating,[19]; [21],90
same,Pigweed plant response rating,[19]; [22],90
same,"Plant response rating, Sedge, Umbrella",[20],50
CCCNC(=O)c1cc(CC)n(Oc2cccc(OC(F)(F)F)c2)n1 [Compound 219],Corn plant response rating (0 to 100 scale),[1]; 125 g ai/ha,0
same,Corn plant response rating,[1]; [22],0
same,Velvetleaf plant response rating (0 to 100 scale),[2]; 125 g ai/ha,0
same,Velvetleaf plant response rating,[3]; [25],0
same,Velvetleaf plant response rating,[3]; [26],90
same,"Crabgrass, Large plant response rating (0 to 100 scale)",[4]; 125 g ai/ha,40
same,"Crabgrass, Large plant response rating",[4]; [22],90
same,"Plant response rating, Barnyardgrass",[5],0
same,Morningglory plant response rating (0 to 100 scale),[6]; 125 g ai/ha,0
same,Wheat plant response rating,[7]; [25],0
same,Wheat plant response rating,[7]; [26],10
same,"Crabgrass, Large plant response rating",[8]; [25],20
same,"Crabgrass, Large plant response rating",[8]; [26],70
same,Wheat plant response rating (0 to 100 scale),[9]; 125 g ai/ha,0
same,Barnyardgrass plant response rating,[10]; [25],10
same,Barnyardgrass plant response rating,[10]; [26],40
same,"Foxtail, Giant plant response rating",[11]; [25],20
same,"Foxtail, Giant plant response rating",[11]; [26],60
same,Pigweed plant response rating,[12]; [25],20
same,Pigweed plant response rating,[12]; [26],60
same,Morningglory plant response rating,[13]; [25],10
same,Morningglory plant response rating,[13]; [26],70
same,"Plant response rating, Ducksalad",[14],30
same,"Plant response rating, Rice",[15],0
same,"Foxtail, Giant plant response rating (0 to 100 scale)",[16]; 125 g ai/ha,0
same,"Foxtail, Giant plant response rating",[16]; [22],20
same,Corn plant response rating,[17]; [25],10
same,Corn plant response rating,[17]; [26],20
same,"Barnyardgrass plant response rating (0 to 100 scale, 0 is no effect, 100 is complete control)",[18]; 125 g ai/ha,0
same,Barnyardgrass plant response rating,[18]; [22],20
same,Pigweed plant response rating (0 to 100 scale),[19]; 125 g ai/ha,0
same,"Plant response rating, Sedge, Umbrella",[20],75
CCc1cc(C(=O)NCC(F)(F)F)nn1Oc1cccc(C(F)(F)F)c1 [Compound 217],Corn plant response rating (0 to 100 scale),[1]; 125 g ai/ha,0
same,Corn plant response rating,[1]; [22],0
same,Velvetleaf plant response rating (0 to 100 scale),[2]; 125 g ai/ha,0
same,Velvetleaf plant response rating,[3]; [25],0
same,Velvetleaf plant response rating,[3]; [26],30
same,"Crabgrass, Large plant response rating (0 to 100 scale)",[4]; 125 g ai/ha,50
same,"Crabgrass, Large plant response rating",[4]; [22],90
same,"Plant response rating, Barnyardgrass",[5],0
same,Morningglory plant response rating (0 to 100 scale),[6]; 125 g ai/ha,0
same,Wheat plant response rating,[7]; [25],0
same,Wheat plant response rating,[7]; [26],0
same,"Crabgrass, Large plant response rating",[8]; [25],20
same,"Crabgrass, Large plant response rating",[8]; [26],70
same,Wheat plant response rating (0 to 100 scale),[9]; 125 g ai/ha,0
same,Barnyardgrass plant response rating,[10]; [25],0
same,Barnyardgrass plant response rating,[10]; [26],20
same,"Foxtail, Giant plant response rating",[11]; [25],0
same,"Foxtail, Giant plant response rating",[11]; [26],30
same,Pigweed plant response rating,[12]; [25],20
same,Pigweed plant response rating,[12]; [26],70
same,Morningglory plant response rating,[13]; [25],20
same,Morningglory plant response rating,[13]; [26],70
same,"Plant response rating, Ducksalad",[14],0
same,"Plant response rating, Rice",[15],0
same,"Foxtail, Giant plant response rating (0 to 100 scale)",[16]; 125 g ai/ha,0
same,"Foxtail, Giant plant response rating",[16]; [22],40
same,Corn plant response rating,[17]; [25],0
same,Corn plant response rating,[17]; [26],20
same,"Barnyardgrass plant response rating (0 to 100 scale, 0 is no effect, 100 is complete control)",[18]; 125 g ai/ha,0
same,Barnyardgrass plant response rating,[18]; [22],20
same,Pigweed plant response rating (0 to 100 scale),[19]; 125 g ai/ha,20
same,"Plant response rating, Sedge, Umbrella",[20],0
